Earlier results in patent publication US10993944B2, “Methods and compositions for the treatment of hair loss” (Aneira Pharma, Inc., priority 2019, dated 2021).
Read-outs that look alike come from different tables or passages of the source. Blank lines part the entries; values can stand above or below the compound they belong to.

What was measured:
[1] = system: elevated intraocular pressure; settings: glaucomatous monkey eyes; Gagliuso 2004
[2] = system: elevated intraocular pressure; settings: human glaucoma patients non-responsive to latanoprost; Gandolfi 2003
[3] = target: human recombinant FP receptor (Homo sapiens, UniProt P43088)
human recombinant FP receptor, sequence (P43088 whole entry): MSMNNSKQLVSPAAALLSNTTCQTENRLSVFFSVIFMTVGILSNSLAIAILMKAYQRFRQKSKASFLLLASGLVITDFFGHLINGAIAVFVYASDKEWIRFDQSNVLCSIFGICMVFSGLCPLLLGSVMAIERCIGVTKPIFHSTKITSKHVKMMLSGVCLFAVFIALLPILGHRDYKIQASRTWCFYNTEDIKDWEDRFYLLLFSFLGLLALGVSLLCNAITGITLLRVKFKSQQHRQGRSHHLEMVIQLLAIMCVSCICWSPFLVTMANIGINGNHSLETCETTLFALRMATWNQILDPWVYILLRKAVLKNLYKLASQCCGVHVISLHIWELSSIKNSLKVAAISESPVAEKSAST

[4] = not given; remark: listed apart in the source
hair growth [5] = settings: McCarey 2004
[6] = system: dihydrotestosterone (DHT); settings: oral; including prostate gland and scalp
hair growth [7] = system: hair growth

Compound: CCNC(=O)CCC/C=C\C[C@@H]1[C@@H](/C=C/[C@@H](O)CCc2ccccc2)[C@H](O)C[C@@H]1O [Bimatoprost]
effect on elevated intraocular pressure in combination with latanoprost [1]: additive to that of latanoprost
response in reducing elevated intraocular pressure [2]: found responsive to bimatoprost

potency compared to PGF2α ([3]; human FP receptors): twice the potency of PGF2α
Compound: O=C(O)CCC/C=C\C[C@@H]1[C@@H](CC[C@@H](O)CCc2ccccc2)[C@H](O)C[C@@H]1O [Latanoprost free acid, Latanoprost acid]
potency as an FP receptor ligand compared to latanoprost ([3]; human recombinant FP receptor): two-hundred times more potent than latanoprost

fat solubility compared to bimatoprost: more fat soluble than bimatoprost
solubility in water (words): poorly dissolved in water
solubility in water (words) (listed as latanoprost): poor solubility in water
stability in acidic or basic aqueous solutions ([4]; acidic or basic aqueous solutions): no more than 48 hours
stability in neutral aqueous solutions ([4]; neutral aqueous solutions, room temperature): up to one month
Compound: CC(C)OC(=O)CCC/C=C\C[C@@H]1[C@@H](CC[C@@H](O)CCc2ccccc2)[C@H](O)C[C@@H]1O [Latanoprost, isopropyl ester of 17-phenyl-13,14-dihydro prostaglandin F2a]
solubility in propylene glycol, methanol, ethanol and 2-propanol (highest concentration (5%)): Sufficient amount of solubility can be obtained even at the highest concentration (5%)

Compound: CCCCCCCC(=O)CC[C@@H]1[C@@H](C/C=C\CCCC(=O)OC(C)C)[C@@H](O)C[C@H]1O [Uenoprostone isopropyl ester, Unoprostone isopropyl ester]
hair growth (hair growth [5]): cause no hair growth and in fact may inhibit hair growth

Compound: CC(C)(C)NC(=O)[C@H]1CC[C@H]2[C@@H]3CC[C@H]4NC(=O)C=C[C@]4(C)[C@H]3CC[C@]12C [finasteride, (1S,3aS,3bS,5aR,9aR,9bS,11aS)—N-tert-butyl-9a,11a-dimethyl-7-oxo-1,2,3,3a,3b,4,5,5a,6,9b,10,11-dodecahydroindeno[5,4-f]quinoline-1-carboxamide]
decrease of production of dihydrotestosterone (DHT) [6]: about 70%

Compound: Nc1cc(N2CCCCC2)nc(N)[n+]1OS(=O)(=O)[O-] [minoxidil sulphate]
potency as hair growth agent compared to minoxidil (hair growth [7]): much more potent hair growth agent

Compound: CCCCCCCC(=O)CC[C@@H]1[C@@H](C/C=C\CCCC(=O)O)[C@@H](O)C[C@H]1O [uenoprostone free acid]
hair growth (hair growth [5]): cause no hair growth and in fact may inhibit hair growth
